What was measured:
Experiment in all cases: Test B pre-/postemergence
Type in all cases: in vivo
Design in all cases: key: 0 is no effect; 10 is complete control
[1] = tested on: wheat (Triticum aestivum)
Method in brief: (§1)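 Scored visually 0 (none) to 10 (complete control) against untreated plants after twelve to sixteen greenhouse days. Test chemicals, formulated in surfactant-containing non-phytotoxic solvent, applied to soil after planting and, separately, onto 1- to 4-leaf (2–18 cm) plants.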

[2] = tested on: crabgrass (Digitaria sanguinalis)
Method in brief: as §1

rape (Brassica napus) = tested on: rape (Brassica napus)
Method in brief: as §1

[3] = tested on: cocklebur (Xanthium strumarium)
Method in brief: as §1

corn (Zea mays) = tested on: corn (Zea mays)
Method in brief: as §1

[4] = tested on: blackgrass (Alopecurus myosuroides)
Method in brief: as §1

[5] = tested on: velvetleaf (Abutilon theophrasti)
Method in brief: as §1

[6] = tested on: purple nutsedge (Cyperus rotundus)
Method in brief: as §1

[7] = tested on: pigweed (Amaranthus retroflexus)
Method in brief: as §1

[8] = tested on: sugar beet (Beta vulgaris)
Method in brief: as §1

soybean (Glycine max) = tested on: soybean (Glycine max)
Method in brief: as §1

Cc1cnc(-c2ccc(C(F)(F)F)cc2)nc1Cc1cccc(C(F)(F)F)c1 [Example 1, 5-methyl-2-[4-(trifluoromethyl)phenyl]-4-[[3-(trifluoromethyl)phenyl]methyl]pyrimidine]
1: Wheat plant response rating ([1]; Rate 62 g/ha, Preemergence) | Corn plant response rating (corn (Zea mays); Rate 62 g/ha, Preemergence) | Corn plant response rating (corn (Zea mays); Rate 125 g/ha, Preemergence) | Plant response rating, Nutsedge ([6]; Rate 250 g/ha, Postemergence) | Plant response rating, Nutsedge ([6]; Rate 500 g/ha, Preemergence) | Soybean plant response rating (soybean (Glycine max); Rate 62 g/ha, Preemergence) | Soybean plant response rating (soybean (Glycine max); Rate 125 g/ha, Preemergence)
9: Plant response rating, Wheat ([1]; Rate 500 g/ha, Preemergence) | Plant response rating, Crabgrass ([2]; Rate 125 g/ha, Postemergence) | Plant response rating, Crabgrass ([2]; Rate 250 g/ha, Postemergence) | Plant response rating, Crabgrass ([2]; Rate 500 g/ha, Postemergence) | Plant response rating, Rape (rape (Brassica napus); Rate 62 g/ha, Postemergence) | Plant response rating, Rape (rape (Brassica napus); Rate 125 g/ha, Postemergence) | Plant response rating, Rape (rape (Brassica napus); Rate 250 g/ha, Postemergence) | Plant response rating, Rape (rape (Brassica napus); Rate 500 g/ha, Postemergence) | Plant response rating, Cocklebur ([3]; Rate 250 g/ha, Postemergence) | Blackgrass plant response rating ([4]; Rate 125 g/ha, Preemergence) | Plant response rating, Blackgrass ([4]; Rate 250 g/ha, Postemergence) | Plant response rating, Blackgrass ([4]; Rate 500 g/ha, Postemergence) | Plant response rating, Velvetleaf ([5]; Rate 250 g/ha, Postemergence) | Plant response rating, Velvetleaf ([5]; Rate 500 g/ha, Postemergence) | Plant response rating, Redroot pigweed ([7]; Rate 62 g/ha, Postemergence) | Plant response rating, Redroot pigweed ([7]; Rate 125 g/ha, Postemergence) | Plant response rating, Soybean (soybean (Glycine max); Rate 250 g/ha, Postemergence) | Plant response rating, Soybean (soybean (Glycine max); Rate 500 g/ha, Postemergence)
2: Plant response rating, Wheat ([1]; Rate 62 g/ha, Postemergence) | Plant response rating, Wheat ([1]; Rate 125 g/ha, Postemergence) | Cocklebur plant response rating ([3]; Rate 62 g/ha, Preemergence) | Cocklebur plant response rating ([3]; Rate 125 g/ha, Preemergence) | Plant response rating, Corn (corn (Zea mays); Rate 250 g/ha, Preemergence) | Plant response rating, Corn (corn (Zea mays); Rate 500 g/ha, Preemergence) | Plant response rating, Nutsedge ([6]; Rate 500 g/ha, Postemergence)
5: Wheat plant response rating ([1]; Rate 125 g/ha, Preemergence) | Plant response rating, Wheat ([1]; Rate 500 g/ha, Postemergence) | Plant response rating, Soybean (soybean (Glycine max); Rate 500 g/ha, Preemergence)
3: Plant response rating, Wheat ([1]; Rate 250 g/ha, Postemergence) | Plant response rating, Cocklebur ([3]; Rate 250 g/ha, Preemergence) | Plant response rating, Soybean (soybean (Glycine max); Rate 250 g/ha, Preemergence)
7: Plant response rating, Cocklebur ([3]; Rate 62 g/ha, Postemergence) | Plant response rating, Corn (corn (Zea mays); Rate 500 g/ha, Postemergence) | Plant response rating, Blackgrass ([4]; Rate 62 g/ha, Postemergence) | Plant response rating, Blackgrass ([4]; Rate 125 g/ha, Postemergence) | Plant response rating, Velvetleaf ([5]; Rate 62 g/ha, Postemergence)
8: Plant response rating, Wheat ([1]; Rate 250 g/ha, Preemergence) | Plant response rating, Cocklebur ([3]; Rate 125 g/ha, Postemergence) | Blackgrass plant response rating ([4]; Rate 62 g/ha, Preemergence) | Plant response rating, Velvetleaf ([5]; Rate 125 g/ha, Postemergence) | Plant response rating, Soybean (soybean (Glycine max); Rate 62 g/ha, Postemergence) | Plant response rating, Soybean (soybean (Glycine max); Rate 125 g/ha, Postemergence)
4: Plant response rating, Crabgrass ([2]; Rate 62 g/ha, Postemergence) | Plant response rating, Corn (corn (Zea mays); Rate 62 g/ha, Postemergence) | Plant response rating, Corn (corn (Zea mays); Rate 125 g/ha, Postemergence) | Plant response rating, Corn (corn (Zea mays); Rate 250 g/ha, Postemergence)
10: Crabgrass plant response rating ([2]; Rate 62 g/ha, Preemergence) | Crabgrass plant response rating ([2]; Rate 125 g/ha, Preemergence) | Plant response rating, Crabgrass ([2]; Rate 250 g/ha, Preemergence) | Plant response rating, Crabgrass ([2]; Rate 500 g/ha, Preemergence) | Rape plant response rating (rape (Brassica napus); Rate 62 g/ha, Preemergence) | Rape plant response rating (rape (Brassica napus); Rate 125 g/ha, Preemergence) | Plant response rating, Rape (rape (Brassica napus); Rate 250 g/ha, Preemergence) | Plant response rating, Rape (rape (Brassica napus); Rate 500 g/ha, Preemergence) | Plant response rating, Cocklebur ([3]; Rate 500 g/ha, Postemergence) | Plant response rating, Cocklebur ([3]; Rate 500 g/ha, Preemergence) | Plant response rating, Blackgrass ([4]; Rate 250 g/ha, Preemergence) | Plant response rating, Blackgrass ([4]; Rate 500 g/ha, Preemergence) | Velvetleaf plant response rating ([5]; Rate 125 g/ha, Preemergence) | Plant response rating, Velvetleaf ([5]; Rate 250 g/ha, Preemergence) | Plant response rating, Velvetleaf ([5]; Rate 500 g/ha, Preemergence) | Redroot pigweed plant response rating ([7]; Rate 62 g/ha, Preemergence) | Redroot pigweed plant response rating ([7]; Rate 125 g/ha, Preemergence) | Plant response rating, Redroot pigweed ([7]; Rate 250 g/ha, Postemergence) | Plant response rating, Redroot pigweed ([7]; Rate 250 g/ha, Preemergence) | Plant response rating, Redroot pigweed ([7]; Rate 500 g/ha, Postemergence) | Plant response rating, Redroot pigweed ([7]; Rate 500 g/ha, Preemergence) | Plant response rating, Sugarbeets ([8]; Rate 62 g/ha, Postemergence) | Sugarbeets plant response rating ([8]; Rate 62 g/ha, Preemergence) | Plant response rating, Sugarbeets ([8]; Rate 125 g/ha, Postemergence) | Sugarbeets plant response rating ([8]; Rate 125 g/ha, Preemergence) | Plant response rating, Sugarbeets ([8]; Rate 250 g/ha, Postemergence) | Plant response rating, Sugarbeets ([8]; Rate 250 g/ha, Preemergence) | Plant response rating, Sugarbeets ([8]; Rate 500 g/ha, Postemergence) | Plant response rating, Sugarbeets ([8]; Rate 500 g/ha, Preemergence)
0: Nutsedge plant response rating ([6]; Rate 62 g/ha, Preemergence) | Nutsedge plant response rating ([6]; Rate 125 g/ha, Preemergence)
6: Velvetleaf plant response rating ([5]; Rate 62 g/ha, Preemergence)

Source: US6525001B1, “Substituted pyrimidine and pyridine herbicides” (Mid-American Commercialization Corporation, priority 1997, dated 2003)
